# Reference: US20230201113A1, “IMMUNE BOOSTER - SUPPLEMENT TREATMENT KIT AND METHODS OF USE” (priority 2020, published 2023)
# System: SARS-CoV-2
# Type: in vivo
# Details: of the 50 subjects in the control group
substance,measurement,value
hydroxychloroquine [Placebo + hydroxychloroquine],subjects resolved from positive to negative through PCR testing after ten days,9 subjects
